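Compound exposure: 48 hours, 5 concentrations, 96-well plates. GI50: concentration for 50% inhibition of growth. At the TGI there is no net growth.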
What was measured:
Test in all cases: NCI anticancer screen, dose series, 48 h
[1] = test system: SR leukemia
[2] = test system: ACHN renal
[3] = test system: HS 578T breast
[4] = test system: MOLT-4 leukemia
[5] = test system: HCT-116 colon
[6] = test system: MDA-MB-435
[7] = test system: OVCAR-5 ovarian
[8] = test system: BT-549 breast
[9] = test system: SF-295 CNS
[10] = test system: NCI-H23 lung
[11] = test system: SNB-75 CNS
[12] = test system: RPMI-8226 leukemia
[13] = test system: HOP-62 NSCLC
[14] = test system: RXF 393 renal
[15] = test system: TK-10 renal
[16] = test system: A549 NSCLC
[17] = test system: OVCAR-8 ovarian
[18] = test system: LOX IMVI melanoma
[19] = test system: HT29 colon
[20] = test system: HOP-92 NSCLC
[21] = test system: CAKI-1 renal
[22] = test system: NCI-H460 lung
[23] = test system: UACC-62 melanoma
[24] = test system: KM12 colon
[25] = test system: K-562 leukemia
[26] = test system: SF-268 CNS
[27] = test system: UACC-257 melanoma
[28] = test system: NCI-H522 lung
[29] = test system: SW-620 colon
[30] = test system: NCI-H226 lung
[31] = test system: MCF7 breast
[32] = test system: M14 melanoma
[33] = test system: EKVX NSCLC
[34] = test system: OVCAR-4 ovarian
[35] = test system: SF-539 CNS
[36] = test system: HCC-2998 colon
[37] = test system: 786-0 renal
[38] = test system: MDA-MB-231 breast
[39] = test system: CCRF-CEM leukemia
[40] = test system: NCI/ADR-RES ovarian
[41] = test system: MALME-3M melanoma
[42] = test system: DU-145 prostate
[43] = test system: A498 renal
[44] = test system: PC-3 prostate
[45] = test system: SK-MEL-28 melanoma
[46] = test system: SN12C renal
[47] = test system: UO-31 renal
[48] = test system: SK-OV-3 ovarian
[49] = test system: HL-60(TB) leukemia
[50] = test system: COLO 205 colon
[51] = test system: OVCAR-3 ovarian
[52] = test system: HCT-15 colon
[53] = test system: IGROV1 ovarian
[54] = test system: T-47D breast
[55] = test system: SNB-19 CNS
[56] = test system: SK-MEL-2 melanoma
[57] = test system: SK-MEL-5 melanoma
[58] = test system: U251 CNS

## COC(=O)c1c2c(c(C)[n+]([O-])c1C)C(=O)C(NCc1cccc(Cl)c1)=CC2=O
[1]
  GI50: 1.85 µM
  TGI: > 100 µM
[2]
  GI50: 1.52 µM
  TGI: 3.58 µM
[3]
  GI50: 2.32 µM
  TGI: 6.91 µM
[4]
  GI50: 2.01 µM
  TGI: 5.68 µM
[5]
  GI50: 0.679 µM
  TGI: 4.9 µM
[6]
  GI50: 0.344 µM
  TGI: 1.13 µM
[7]
  GI50: 1.81 µM
  TGI: 3.63 µM
[8]
  GI50: 1.54 µM
  TGI: 3.07 µM
[9]
  GI50: 1.31 µM
  TGI: 2.72 µM
[10]
  GI50: 1.23 µM
  TGI: 3.25 µM
[11]
  GI50: 2.1 µM
  TGI: 5.07 µM
[12]
  GI50: 2.14 µM
  TGI: 7.81 µM
[13]
  GI50: 2.3 µM
  TGI: 9.62 µM
[14]
  GI50: 1.48 µM
  TGI: 3.37 µM
[15]
  GI50: 3.69 µM
  TGI: 15.3 µM
[16]
  GI50: 1.94 µM
  TGI: 6.17 µM
[17]
  GI50: 1.52 µM
  TGI: 9.78 µM
[18]
  GI50: 1.76 µM
  TGI: 5.58 µM
[19]
  GI50: 0.634 µM
  TGI: > 100 µM
[20]
  GI50: 2.22 µM
  TGI: 4.54 µM
[21]
  GI50: 1.97 µM
  TGI: 5.63 µM
[22]
  GI50: 0.659 µM
  TGI: 7.92 µM
[23]
  GI50: 1.24 µM
  TGI: 2.84 µM
[24]
  GI50: 1.56 µM
  TGI: 9.73 µM
[25]
  GI50: 2.17 µM
  TGI: > 100 µM
[26]
  GI50: 2.53 µM
  TGI: 12.9 µM
[27]
  GI50: 0.701 µM
  TGI: 2.28 µM
[28]
  GI50: 1.91 µM
  TGI: 4.62 µM
[29]
  GI50: 1.01 µM
  TGI: 4.31 µM
[30]
  GI50: 2.1 µM
  TGI: 4.67 µM
[31]
  GI50: 1.1 µM
  TGI: 2.77 µM
[32]
  GI50: 1.06 µM
  TGI: 2.4 µM
[33]
  GI50: 1.51 µM
  TGI: 3.61 µM
[34]
  GI50: 0.507 µM
  TGI: 1.85 µM
[35]
  GI50: 1.8 µM
  TGI: 3.26 µM
[36]
  GI50: 1.82 µM
  TGI: 4.46 µM
[37]
  GI50: 2.65 µM
  TGI: 13.9 µM
[38]
  GI50: 1.18 µM
  TGI: 4.88 µM
[39]
  GI50: 2.29 µM
  TGI: 8.53 µM
[40]
  GI50: 1.64 µM
  TGI: 5.81 µM
[41]
  GI50: 0.171 µM
  TGI: 0.432 µM
[42]
  GI50: 1.91 µM
  TGI: 4.2 µM
[43]
  GI50: 1.56 µM
  TGI: 3.18 µM
[44]
  GI50: 1.62 µM
  TGI: 17.9 µM
[45]
  GI50: 3.17 µM
  TGI: 15 µM
[46]
  GI50: 1.02 µM
  TGI: 2.44 µM
[47]
  GI50: 1.53 µM
  TGI: 3.23 µM
[48]
  GI50: 3.05 µM
  TGI: 12.8 µM
[49]
  GI50: 0.628 µM
  TGI: 3.55 µM
[50]
  GI50: 0.388 µM
  TGI: 1.55 µM
[51]
  GI50: 0.322 µM
  TGI: 1.17 µM
[52]
  GI50: 1.1 µM
  TGI: 2.75 µM
[53]
  GI50: 1.17 µM
  TGI: 2.98 µM
[54]
  GI50: 1.69 µM
  TGI: 4.41 µM
[55]
  GI50: 2.45 µM
  TGI: 7.8 µM
[56]
  GI50: 1.95 µM
  TGI: 4.6 µM
[57]
  GI50: 0.2 µM
  TGI: 0.448 µM
[58]
  GI50: 2.1 µM
  TGI: 7.52 µM

— PubChem BioAssay (NCI)
